ChEMBL document CHEMBL1201862, “PubChem BioAssay data set” (2004)
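Values below derive from 48-hour exposures of cells grown in 96-well plates, with endpoints linearly interpolated between the two concentrations bracketing the appropriate inhibition level. GI50: concentration for 50% inhibition of growth.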 Activity calls are given as the source filed them. No stated cut-off is given here; in the data, active = GI50 up to about 1.1 µM and inactive = higher.

Columns and labels:
Test in all cases: NCI tumour cell line growth inhibition, 48 h
786-0 = test system: 786-0
A549 = test system: A549
ACHN = test system: ACHN
CAKI-1 = test system: CAKI-1
CCRF-CEM = test system: CCRF-CEM
COLO 205 = test system: COLO 205
DLD-1 = test system: DLD-1
DMS-114 = test system: DMS-114
DMS-273 = test system: DMS-273
EKVX = test system: EKVX
HCC 2998 = test system: HCC 2998
HCT-116 = test system: HCT-116
HCT-15 = test system: HCT-15
HL-60 = test system: HL-60
HOP-62 = test system: HOP-62
HOP-92 = test system: HOP-92
HT-29 = test system: HT-29
IGROV-1 = test system: IGROV-1
K562 = test system: K562
KM-20L2 = test system: KM-20L2
KM12 = test system: KM12
LOX IMVI = test system: LOX IMVI
LXFL 529 = test system: LXFL 529
M14 = test system: M14
M19-MEL = test system: M19-MEL
MOLT-4 = test system: MOLT-4
Malme-3M = test system: Malme-3M
NCI-H226 = test system: NCI-H226
NCI-H23 = test system: NCI-H23
NCI-H460 = test system: NCI-H460
NCI-H522 = test system: NCI-H522
OVCAR-3 = test system: OVCAR-3
OVCAR-4 = test system: OVCAR-4
OVCAR-5 = test system: OVCAR-5
OVCAR-8 = test system: OVCAR-8
RPMI-8226 = test system: RPMI-8226
RXF 393 = test system: RXF 393
SF-268 = test system: SF-268
SF-295 = test system: SF-295
SF-539 = test system: SF-539
SK-MEL-28 = test system: SK-MEL-28
SK-MEL-2 = test system: SK-MEL-2
SK-MEL-5 = test system: SK-MEL-5
SK-OV-3 = test system: SK-OV-3
SN12C = test system: SN12C
SNB-19 = test system: SNB-19
SNB-75 = test system: SNB-75
SNB-78 = test system: SNB-78
SR = test system: SR
SW-620 = test system: SW-620
TK-10 = test system: TK-10
U-251 = test system: U-251
UACC-62 = test system: UACC-62
UO-31 = test system: UO-31
XF498 = test system: XF498
A498 = test system: A498
UACC-257 = test system: UACC-257
HOP-18 = test system: HOP-18

COc1ccc(/C(Cl)=C(\c2ccc(OCCN(C)C)cc2)c2ccc(OC(=O)C(C)(C)C)cc2)cc1
GI50 (786-0): 10.4 µM (inactive) | GI50 (A549): 15 µM (inactive) | GI50 (ACHN): 16 µM (inactive) | GI50 (CAKI-1): 14.7 µM (inactive) | GI50 (CCRF-CEM): 11 µM (inactive) | GI50 (COLO 205): 13.9 µM (inactive) | GI50 (DLD-1): 13.6 µM (inactive) | GI50 (DMS-114): 12.2 µM (inactive) | GI50 (DMS-273): 5.07 µM (inactive) | GI50 (EKVX): 13.7 µM (inactive) | GI50 (HCC 2998): 15.7 µM (inactive) | GI50 (HCT-116): 12.1 µM (inactive) | GI50 (HCT-15): 10.6 µM | GI50 (HL-60): 5.97 µM (inactive) | GI50 (HOP-62): 16.1 µM (inactive) | GI50 (HOP-92): 18.1 µM (inactive) | GI50 (HT-29): 3.85 µM (inactive) | GI50 (IGROV-1): 17.7 µM (inactive) | GI50 (K562): 3.01 µM (inactive) | GI50 (KM-20L2): 3.41 µM (inactive) | GI50 (KM12): 13.5 µM (inactive) | GI50 (LOX IMVI): 6.61 µM (inactive) | GI50 (LXFL 529): 14 µM (inactive) | GI50 (M14): 3.58 µM (inactive) | GI50 (M19-MEL): 13.7 µM (inactive) | GI50 (MOLT-4): 2.91 µM (inactive) | GI50 (Malme-3M): 13.6 µM (inactive) | GI50 (NCI-H226): 12.9 µM (inactive) | GI50 (NCI-H23): 15.7 µM (inactive) | GI50 (NCI-H460): 10.3 µM (inactive) | GI50 (NCI-H522): 14.8 µM (inactive) | GI50 (OVCAR-3): 15.2 µM (inactive) | GI50 (OVCAR-4): 13.9 µM (inactive) | GI50 (OVCAR-5): 15.7 µM (inactive) | GI50 (OVCAR-8): 15.8 µM (inactive) | GI50 (RPMI-8226): 14.3 µM (inactive) | GI50 (RXF 393): 8.28 µM (inactive) | GI50 (SF-268): 13.7 µM (inactive) | GI50 (SF-295): 14.8 µM (inactive) | GI50 (SF-539): 13.8 µM (inactive) | GI50 (SK-MEL-28): 11.1 µM (inactive) | GI50 (SK-MEL-2): 15.9 µM (inactive) | GI50 (SK-MEL-5): 14 µM (inactive) | GI50 (SK-OV-3): 11.1 µM (inactive) | GI50 (SN12C): 13.4 µM (inactive) | GI50 (SNB-19): 16 µM (inactive) | GI50 (SNB-75): 10.2 µM (inactive) | GI50 (SNB-78): 16.1 µM (inactive) | GI50 (SR): 7.69 µM (inactive) | GI50 (SW-620): 13.2 µM (inactive) | GI50 (TK-10): 18.1 µM (inactive) | GI50 (U-251): 13.6 µM (inactive) | GI50 (UACC-62): 14.8 µM (inactive) | GI50 (UO-31): 6.95 µM (inactive) | GI50 (XF498): 11.5 µM (inactive)

NC1CCCCC1.O=P(O)(O)C1(P(=O)(O)O)CC1
GI50 (786-0): > 100 µM (inactive) | GI50 (A498): > 100 µM (inactive) | GI50 (A549): > 100 µM (inactive) | GI50 (ACHN): > 100 µM (inactive) | GI50 (CAKI-1): > 100 µM (inactive) | GI50 (CCRF-CEM): > 100 µM (inactive) | GI50 (COLO 205): > 100 µM (inactive) | GI50 (DMS-114): > 100 µM (inactive) | GI50 (DMS-273): > 100 µM (inactive) | GI50 (EKVX): > 100 µM (inactive) | GI50 (HCC 2998): > 100 µM (inactive) | GI50 (HCT-116): > 100 µM (inactive) | GI50 (HCT-15): > 100 µM | GI50 (HOP-62): > 100 µM (inactive) | GI50 (HT-29): > 100 µM (inactive) | GI50 (IGROV-1): > 100 µM (inactive) | GI50 (K562): > 100 µM (inactive) | GI50 (KM-20L2): > 100 µM (inactive) | GI50 (KM12): > 100 µM (inactive) | GI50 (LOX IMVI): > 100 µM (inactive) | GI50 (LXFL 529): > 100 µM (inactive) | GI50 (M14): > 100 µM (inactive) | GI50 (M19-MEL): > 100 µM (inactive) | GI50 (MOLT-4): > 100 µM (inactive) | GI50 (Malme-3M): > 100 µM (inactive) | GI50 (NCI-H226): > 100 µM (inactive) | GI50 (NCI-H23): > 100 µM (inactive) | GI50 (NCI-H460): > 100 µM (inactive) | GI50 (NCI-H522): > 100 µM (inactive) | GI50 (OVCAR-3): > 100 µM (inactive) | GI50 (OVCAR-4): > 100 µM (inactive) | GI50 (OVCAR-5): > 100 µM (inactive) | GI50 (OVCAR-8): > 100 µM (inactive) | GI50 (RPMI-8226): > 100 µM (inactive) | GI50 (RXF 393): > 100 µM (inactive) | GI50 (SF-268): > 100 µM (inactive) | GI50 (SF-295): > 100 µM (inactive) | GI50 (SF-539): > 100 µM (inactive) | GI50 (SK-MEL-28): > 100 µM (inactive) | GI50 (SK-MEL-2): > 100 µM (inactive) | GI50 (SK-MEL-5): > 100 µM (inactive) | GI50 (SK-OV-3): > 100 µM (inactive) | GI50 (SN12C): > 100 µM (inactive) | GI50 (SNB-19): > 100 µM (inactive) | GI50 (SNB-75): > 100 µM (inactive) | GI50 (SNB-78): > 100 µM (inactive) | GI50 (SW-620): > 100 µM (inactive) | GI50 (TK-10): > 100 µM (inactive) | GI50 (U-251): > 100 µM (inactive) | GI50 (UACC-257): > 100 µM (inactive) | GI50 (UACC-62): > 100 µM (inactive) | GI50 (UO-31): > 100 µM (inactive) | GI50 (XF498): > 100 µM (inactive)

COC1CC2C3/C(=N/Nc4ccc([N+](=O)[O-])cc4[N+](=O)[O-])CCC2(C)C3C1 (configuration not stated)
GI50 (786-0): > 10 µM (inactive) | GI50 (A498): > 10 µM (inactive) | GI50 (A549): > 100 µM (inactive) | GI50 (ACHN): > 10 µM (inactive) | GI50 (CAKI-1): > 10 µM (inactive) | GI50 (COLO 205): > 10 µM (inactive) | GI50 (DLD-1): > 10 µM (inactive) | GI50 (DMS-114): > 100 µM (inactive) | GI50 (DMS-273): > 10 µM (inactive) | GI50 (HCC 2998): > 10 µM (inactive) | GI50 (HCT-116): > 100 µM (inactive) | GI50 (HCT-15): > 100 µM | GI50 (HL-60): 52.6 µM (inactive) | GI50 (HOP-18): > 10 µM (inactive) | GI50 (HOP-62): > 10 µM (inactive) | GI50 (HOP-92): > 10 µM (inactive) | GI50 (HT-29): > 10 µM (inactive) | GI50 (IGROV-1): > 10 µM (inactive) | GI50 (K562): 75.5 µM (inactive) | GI50 (KM-20L2): > 10 µM (inactive) | GI50 (KM12): > 100 µM (inactive) | GI50 (LOX IMVI): > 10 µM (inactive) | GI50 (LXFL 529): > 10 µM (inactive) | GI50 (M14): > 10 µM (inactive) | GI50 (M19-MEL): > 10 µM (inactive) | GI50 (MOLT-4): 42.3 µM (inactive) | GI50 (Malme-3M): > 10 µM (inactive) | GI50 (NCI-H226): > 10 µM (inactive) | GI50 (NCI-H23): > 10 µM (inactive) | GI50 (NCI-H460): > 100 µM (inactive) | GI50 (NCI-H522): > 10 µM (inactive) | GI50 (OVCAR-3): > 10 µM (inactive) | GI50 (OVCAR-4): > 10 µM (inactive) | GI50 (OVCAR-5): > 10 µM (inactive) | GI50 (OVCAR-8): > 100 µM (inactive) | GI50 (RPMI-8226): 78 µM (inactive) | GI50 (SF-268): > 100 µM (inactive) | GI50 (SF-295): > 10 µM (inactive) | GI50 (SF-539): > 10 µM (inactive) | GI50 (SK-MEL-28): > 100 µM (inactive) | GI50 (SK-MEL-2): > 10 µM (inactive) | GI50 (SK-MEL-5): > 10 µM (inactive) | GI50 (SK-OV-3): > 10 µM (inactive) | GI50 (SN12C): > 10 µM (inactive) | GI50 (SNB-19): > 10 µM (inactive) | GI50 (SNB-75): > 10 µM (inactive) | GI50 (SR): 37.1 µM (inactive) | GI50 (SW-620): > 10 µM (inactive) | GI50 (TK-10): > 100 µM (inactive) | GI50 (U-251): > 10 µM (inactive) | GI50 (UACC-257): > 100 µM (inactive) | GI50 (UACC-62): > 10 µM (inactive) | GI50 (UO-31): > 10 µM (inactive) | GI50 (XF498): > 100 µM (inactive)
